The record followed here is a melting point compilation (Tetko et al.; mined from patent text by program, amines drawn as free bases though some values may be those of a salt).

In general, melting point refers to the temperature, or range, at which the solid turns liquid.

Compound `Cc1nc(-c2ccc(Cl)cc2)n(-c2ccc(S(N)(=O)=O)cn2)n1` displayed a melting point of 215 to 217 °C.

As for `CC(=O)NC(C#N)NC(=O)c1cc(C)cc(C)c1` (stereo unspecified), the melting point was 195 to 197 °C.

In turn, `COc1cccc2c1nc(C(F)F)n2-c1nc(Nc2ccc(N)nc2)nc(N2CCOCC2)n1` gave a melting point of 267 to 270 °C.

Compound `COc1ccccc1-c1ccc2cnc(Nc3ccc(N4CCN(CC(N)=O)CC4)c(F)c3)nn12` gave a melting point of 186 °C.

Turning to `CC(=O)C(C(C)=O)[C@@H]1NC(=O)[C@@H]1C(C)(C)O`, the melting point lay in the range of 109 to 110 °C.

Regarding `COc1cc(C)nc(NC(=O)NS(=O)(=O)c2c(C)nn(C)c2OC)n1`, the melting point fell in the range of 183 to 184 °C.

Take `Fc1ccc(-c2coc(-c3cn([C@H]4CN5CCC4CC5)nn3)c2)cn1`: the melting point is 210 °C.

The compound `CC(=O)NC(Cc1cc(F)c(F)cc1F)Cc1nnc2n1ccc1ncnn12` (stereo unspecified) registered a melting point of 233 to 235 °C.

With `c1ccc2c(-n3cncn3)ccnc2c1`, the melting point was 147 to 149 °C.

Take `Cc1nc2c3c(c(C(=O)NC4CC4)cc2n1C)CCC1(Cc2ccccc2C1)N3`: the melting point was in the range of 247 to 248 °C.

The compound `O=S(=O)(Nc1ccc(Cl)nc1I)c1ccc2ncsc2c1` yielded a melting point of 191 °C.

`Clc1cc(Cl)c(C(Cl)Cl)nc1Cl` had a melting point of 61 to 62 °C.

As for `Cc1n[nH]c(=O)n(Cc2ccccc2)c1=O`, the melting point lay in the range of 143 to 146 °C.

For `CN1CCC(O)(c2cccn2C)CC1`, the melting point was in the range of 123 to 124 °C.

Regarding `CCc1noc(-c2ncn(-c3cccc(O)c3)c2COC)n1`, the melting point was in the range of 98 to 99 °C.

The compound `CSc1nc2c(NCc3ccccc3)ncnc2n1C1OC(CO)C(O)C1O` (stereo unspecified) returned a melting point of 81 to 84 °C.

For `COc1ccc2c(c1O)C13CCN(C)C(C2)C1C=C(C)C(=O)C3` (stereo unspecified), the melting point lay within 183 to 185 °C.

`C[C@@H](OC(=O)c1cc([N+](=O)[O-])cc([N+](=O)[O-])c1)[C@@]1(c2ccc(F)cc2F)CO1` had a melting point of 104 to 107 °C.

Compound `C[C@H]1CN(C(=O)OC(C)(C)C)CCCN1S(=O)(=O)c1ccccc1[N+](=O)[O-]` had a melting point of 113 to 114 °C.

`CC12CC=CCC1CCC1C2CCC2(C)C(C(N)=O)CCC12` (stereo unspecified) returned a melting point of 199 to 202 °C.

The compound `CC(C)OC(=O)c1cc(-n2c(=O)[nH]c(CF)c(F)c2=O)c(F)cc1Cl` had a melting point of 171 to 173 °C.

As to `ClC(Cl)(Cl)c1nnc(Br)s1`, the melting point was 39 °C.

As to `C#Cc1cccc(OCC2=CC=C(CO)SS2)c1`, the melting point fell in the range of 70.5 to 71.5 °C.

Regarding `O=C1NN=C(c2cccc([N+](=O)[O-])c2)C2CC12` (stereo unspecified), the melting point lay within 220 to 221 °C.

In the case of `CN(C)Cc1cc(Oc2ccc3c(C(=O)Nc4cccc(C(F)(F)F)c4)cccc3c2)ncn1`, the melting point lay in the range of 180 to 181 °C.

`CCC(CC)Nc1nc(N)nc(C(C)(C)F)n1`: the melting point was in the range of 104 to 106 °C.

For the compound `O=C(O)CCC=C(c1ccc(F)cc1)c1ccc(F)cc1`, the melting point is 100 °C.

`CN(CCCNc1ncc(Cc2ccc(Br)cc2)c(=O)[nH]1)c1ccccn1` returned a melting point of 178 to 179 °C.

`CCCc1nc2c(C)ccnc2n1Cc1ccc(-c2ccncc2-c2nnn[nH]2)cc1` had a melting point of 110 to 112 °C.

On to `N#Cc1c(N2CCN(C(=O)c3cccs3)CC2)c2cc(F)cnc2n(Cc2ccccc2)c1=O`, for which the melting point turned out to be 173 °C.

Compound `CC(=O)N1CCc2ccsc2C1=O` returned a melting point of 92 °C.

The compound `COC(=O)C(O)CCN1C(=O)c2ccccc2C1=O` (stereo unspecified) had a melting point of 123 to 124 °C.

`Cc1ncc(C#N)c(Nc2ccc3[nH]ccc3c2C)c1-c1cc2cc(C=O)ccc2o1` had a melting point of 168 to 169 °C.

In turn, `O=C(O)C1=Cc2cc(Cl)c(Oc3ccc(F)c(F)c3)cc2OC1C(F)(F)F` (stereo unspecified) registered a melting point of 192 to 193 °C.

As for `CON1CCC2(CC1)C(OCc1ccccc1)=C(c1c(C)cc(C)cc1C)C(=O)N2CC1CC1`, the melting point lay in the range of 119 to 121 °C.

Compound `Cn1cc(C(=O)NC2CCCNC(=O)C2)nn1` (stereo unspecified) yielded a melting point of 259 to 260 °C.
